# Where two headings read alike, the source gives them in different places.
# Key:
# [1] = Pharmacokinetic assessment in C57BL/6 healthy wild-type mice (i.p.); assay type: in vivo, mouse; conditions: C57BL/6 mice, 10 mg/kg i.p.
# Procedure: (§1) For PK evaluation, the compounds were administered i.p to male C57BL/6 mice in suspension (gelatine/saline 7.5%/0.62% in water) using an administration volume of 4 mL/kg. Blood samples were collected in tubes containing EDTA, plasma was separated by centrifugation and stored at −80° C. Liver and kidney samples (˜100 mg aliquots) were homogenized in three volumes of water using Precellys tissue homogenization tubes (precellys.com). 25 μL of each tissue homogenate was further diluted with 25 μL blank plasma to produce the final tissue homogenate for extraction. All samples were analyzed using protein precipitation followed by LC-MS/MS analysis. Briefly, 50 μL plasma or final tissue homogenate were mixed with 50 μL 0.5M HClO4/acetonitrile 9/1 (containing 200 ng/mL internal standard bosentan). Samples were stirred and 300 μL water was added followed by centrifugation at 5600 rpm (4° C., 10 min). 10 μL supernatant was analyzed by LC/MS analysis. Calibration standards in plasma were prepared the same way. The LC column and conditions used were: Phenomenex, Polar RP, 4 μm, 50×2.1 mm at 0.4 mL/min flow rate with a 3 min gradient from 95% solvent A to 95% solvent B (Solvent A: Water/ACN/HCOOH, 90:10:0.1+10 mM NH4 formate; Solvent B: Water/ACN/HCOOH, 10:90:0.1+10 mM NH4 formate). Mass spectrometric conditions were: Thermo TSQ Vantage with positive heated electrospray ionization in MS/MS mode. Compounds mass transitions monitored were m/z 320.7 to 119.9. PK parameters for all studies were calculated using Phoenix WinNonlin Software.
# We next determined the stability, tissue distribution and cleavage rate in plasma, liver and kidney of the designed prodrugs in non-diseased mice. In the in vivo screen, the kinetics and distribution of γ-secretase inhibitor prodrugs Ac-γ-Glu-SecrI (13a), Ac-α-Glu-SecrI (15a) and H-α-Glu-SecrI (15b) were compared with the active γ-secretase inhibitor amine-SecrI (11a). After i.p administration (10 mg/kg) in C57BL/6 mice, the disappearance of the prodrugs and the formation of the active amine-SecrI (11a) were compared in plasma, liver and kidney (Table 5). First, we determined the pharmacokinetics (PK) behavior of amine-SecrI (11a) following i.p. administration (Table 5A). […] Liver and kidney exposure were much higher, with approximately 4.5-fold higher exposure in liver compared to kidney. […] The selectivity towards kidney appeared to decrease over time, probably due to fast clearance and re-equilibration of the amine-SecrI (11a). However, the high selectivity at earlier time-points assured that the total exposure over time was much higher in the kidney compared to the liver.
# [2] = Pharmacokinetic assessment in male Wistar rats (i.v.); assay type: in vivo, rat
# Procedure: as §1
# We next determined the stability, tissue distribution and cleavage rate in plasma, liver and kidney of the designed prodrugs in male Wistar rats. In the in vivo screen, the kinetics and distribution of the prodrugs Ac-γ-Glu-SecrI (13a) and Ac-γ-Glu-O-SecrI (13c) were compared with the active γ-secretase inhibitor SecrI (8). After i.v. administration in male Wistar rats, the disappearance of the prodrugs and the formation of the active amine-SecrI (11a), amine-O-SecrI (11b) and SecrI (8) were compared in plasma, liver and kidney (Table 7A-C). First, we determined the pharmacokinetics (PK) behavior of SecrI (8) following i.v. administration (Table 7A). […] Liver and kidney exposure were much higher, with same exposure in liver and kidney. […] The selectivity towards kidney stayed constant over time. The carbonate analogue Ac-γ-Glu-O-SecrI (13c) prodrug was converted to a lower extent than the Ac-γ-Glu-SecrI (13a) to amine-O-SecrI (11b) but more to the linker free γ-secretase inhibitor 8 (Table 7C).
# Plasma and tissue concentrations of administered compound (A-C) and formed amine-SecrI (11a), amine-O-SecrI (11b) or SecrI (8) (B-C) were determined following i.v. administration in rats (no standard deviation given due to sparse sampling; n≤3 rats per time point). Numbers in parentheses represent relative amounts with the exposure of kidney arbitrarily set at each time point to 100%. […] BQL=below quantifiable limit.
compound,measurement,setting,value
"CC(=O)N[C@@H](CCC(=O)NCCNC(=O)OCCN1C(=O)[C@@H](NC(=O)[C@@](C)(O)C(=O)NCC(F)(F)C(F)(F)F)[C@@H](C)Oc2ccc(F)cc21)C(=O)O [Compound 13a, (S)-2-acetamido-5-(2-((2-((2R,3S)-7-fluoro-3-((S)-2-hydroxy-2-methyl-3-oxo-3-(2,2,3,3,3-pentafluoropropylamino)propanamido)-2-methyl-4-oxo-3,4-dihydrobenzo[b][1,4]oxazepin-5(2H)-yl)ethoxy)carbonylamino)ethylamino)-5-oxopentanoic acid]","conversion to amine-SecrI (11a), in words",[1],high conversion
same,"plasma exposure, in words",[1],low plasma exposure
same,Plasma concentration of administered compound,[1]; 4 h,BQL
same,Kidney concentration of administered compound,[1]; 7 h,BQL
same,Plasma concentration of administered compound,[1]; 7 h,BQL
same,concentration at 0.5 h,"[1]; male, mouse, kidney, ip, read-out: Kidney concentration of administered compound",1030 ng/g
same,concentration at 4 h,"[1]; male, mouse, kidney, ip, 4 h, read-out: Kidney concentration of administered compound",16.6 ng/g
same,concentration at 0.5 h,"[1]; male, mouse, liver, ip, read-out: Liver concentration of administered compound",3570 ng/g
same,concentration at 4 h,"[1]; male, mouse, liver, ip, 4 h, read-out: Liver concentration of administered compound",625 ng/g
same,concentration at 7 h,"[1]; male, mouse, liver, ip, 7 h, read-out: Liver concentration of administered compound",22.3 ng/g
same,concentration at 0.5 h,"[1]; male, mouse, plasma, ip, read-out: Plasma concentration of administered compound",4.88 ng/mL
same,Liver concentration of 13a,"[2]; 13a 1.6 mg/kg i.v., 4 h",BQL
same,Plasma concentration of 13a,"[2]; 13a 1.6 mg/kg i.v., 4 h",BQL
same,Kidney concentration of 13a,"[2]; 13a 1.6 mg/kg i.v., 7 h",BQL
same,Liver concentration of 13a,"[2]; 13a 1.6 mg/kg i.v., 7 h",BQL
same,Plasma concentration of 13a,"[2]; 13a 1.6 mg/kg i.v., 7 h",BQL
same,"conversion to amine-SecrI (11a), in words","[2]; 13a i.v., 0.25 h",high conversion
same,"conversion to the linker-free γ-secretase inhibitor 8, in words",[2]; i.v.,never observed significant amounts
same,"plasma exposure, in words",[2]; i.v.,low plasma exposure
same,"stability in plasma, in words",[2]; i.v.,good stability in plasma
same,concentration at 0.25 h,"[2]; rat, kidney, iv, 13a 1.6 mg/kg i.v., 0.25 h, read-out: Kidney concentration of 13a",188 ng/g
same,concentration at 0.5 h,"[2]; rat, kidney, iv, 13a 1.6 mg/kg i.v., read-out: Kidney concentration of 13a",12.7 ng/g
same,concentration at 4 h,"[2]; rat, kidney, iv, 13a 1.6 mg/kg i.v., 4 h",16.6 ng/g
same,concentration at 0.25 h,"[2]; rat, liver, iv, 13a 1.6 mg/kg i.v., 0.25 h, read-out: Liver concentration of 13a",400 ng/g
same,concentration at 0.5 h,"[2]; rat, liver, iv, 13a 1.6 mg/kg i.v., read-out: Liver concentration of 13a",33.4 ng/g
same,concentration at 0.25 h,"[2]; rat, plasma, iv, 13a 1.6 mg/kg i.v., 0.25 h, read-out: Plasma concentration of 13a",295 ng/mL
same,concentration at 0.5 h,"[2]; rat, plasma, iv, 13a 1.6 mg/kg i.v., read-out: Plasma concentration of 13a",11.2 ng/mL

# Reference: patent publication US10632127B2, “Targeted notch pathway inhibitors” (Hoffmann-La Roche Inc., priority 2015, dated 2020)
